Consider one compound from patent US5364842A (priority 1993, dated 1994).

Bridge positions count the residues as written; N and C are the ends. Square brackets hold non-standard residues; d marks the D form. Peptide text beside a SMILES is read from it. Hyp = O=C(O)[C@@H]1C[C@@H](O)CN1

This assay addresses N-type or omega HVA neuronal calcium channels; calcium currents in N1E-115 neuroblastoma cells (Mus musculus, UniProt O55017). The format is cell-based.

N-type or omega HVA neuronal calcium channels; calcium currents in N1E-115 neuroblastoma cells, sequence (O55017 whole entry): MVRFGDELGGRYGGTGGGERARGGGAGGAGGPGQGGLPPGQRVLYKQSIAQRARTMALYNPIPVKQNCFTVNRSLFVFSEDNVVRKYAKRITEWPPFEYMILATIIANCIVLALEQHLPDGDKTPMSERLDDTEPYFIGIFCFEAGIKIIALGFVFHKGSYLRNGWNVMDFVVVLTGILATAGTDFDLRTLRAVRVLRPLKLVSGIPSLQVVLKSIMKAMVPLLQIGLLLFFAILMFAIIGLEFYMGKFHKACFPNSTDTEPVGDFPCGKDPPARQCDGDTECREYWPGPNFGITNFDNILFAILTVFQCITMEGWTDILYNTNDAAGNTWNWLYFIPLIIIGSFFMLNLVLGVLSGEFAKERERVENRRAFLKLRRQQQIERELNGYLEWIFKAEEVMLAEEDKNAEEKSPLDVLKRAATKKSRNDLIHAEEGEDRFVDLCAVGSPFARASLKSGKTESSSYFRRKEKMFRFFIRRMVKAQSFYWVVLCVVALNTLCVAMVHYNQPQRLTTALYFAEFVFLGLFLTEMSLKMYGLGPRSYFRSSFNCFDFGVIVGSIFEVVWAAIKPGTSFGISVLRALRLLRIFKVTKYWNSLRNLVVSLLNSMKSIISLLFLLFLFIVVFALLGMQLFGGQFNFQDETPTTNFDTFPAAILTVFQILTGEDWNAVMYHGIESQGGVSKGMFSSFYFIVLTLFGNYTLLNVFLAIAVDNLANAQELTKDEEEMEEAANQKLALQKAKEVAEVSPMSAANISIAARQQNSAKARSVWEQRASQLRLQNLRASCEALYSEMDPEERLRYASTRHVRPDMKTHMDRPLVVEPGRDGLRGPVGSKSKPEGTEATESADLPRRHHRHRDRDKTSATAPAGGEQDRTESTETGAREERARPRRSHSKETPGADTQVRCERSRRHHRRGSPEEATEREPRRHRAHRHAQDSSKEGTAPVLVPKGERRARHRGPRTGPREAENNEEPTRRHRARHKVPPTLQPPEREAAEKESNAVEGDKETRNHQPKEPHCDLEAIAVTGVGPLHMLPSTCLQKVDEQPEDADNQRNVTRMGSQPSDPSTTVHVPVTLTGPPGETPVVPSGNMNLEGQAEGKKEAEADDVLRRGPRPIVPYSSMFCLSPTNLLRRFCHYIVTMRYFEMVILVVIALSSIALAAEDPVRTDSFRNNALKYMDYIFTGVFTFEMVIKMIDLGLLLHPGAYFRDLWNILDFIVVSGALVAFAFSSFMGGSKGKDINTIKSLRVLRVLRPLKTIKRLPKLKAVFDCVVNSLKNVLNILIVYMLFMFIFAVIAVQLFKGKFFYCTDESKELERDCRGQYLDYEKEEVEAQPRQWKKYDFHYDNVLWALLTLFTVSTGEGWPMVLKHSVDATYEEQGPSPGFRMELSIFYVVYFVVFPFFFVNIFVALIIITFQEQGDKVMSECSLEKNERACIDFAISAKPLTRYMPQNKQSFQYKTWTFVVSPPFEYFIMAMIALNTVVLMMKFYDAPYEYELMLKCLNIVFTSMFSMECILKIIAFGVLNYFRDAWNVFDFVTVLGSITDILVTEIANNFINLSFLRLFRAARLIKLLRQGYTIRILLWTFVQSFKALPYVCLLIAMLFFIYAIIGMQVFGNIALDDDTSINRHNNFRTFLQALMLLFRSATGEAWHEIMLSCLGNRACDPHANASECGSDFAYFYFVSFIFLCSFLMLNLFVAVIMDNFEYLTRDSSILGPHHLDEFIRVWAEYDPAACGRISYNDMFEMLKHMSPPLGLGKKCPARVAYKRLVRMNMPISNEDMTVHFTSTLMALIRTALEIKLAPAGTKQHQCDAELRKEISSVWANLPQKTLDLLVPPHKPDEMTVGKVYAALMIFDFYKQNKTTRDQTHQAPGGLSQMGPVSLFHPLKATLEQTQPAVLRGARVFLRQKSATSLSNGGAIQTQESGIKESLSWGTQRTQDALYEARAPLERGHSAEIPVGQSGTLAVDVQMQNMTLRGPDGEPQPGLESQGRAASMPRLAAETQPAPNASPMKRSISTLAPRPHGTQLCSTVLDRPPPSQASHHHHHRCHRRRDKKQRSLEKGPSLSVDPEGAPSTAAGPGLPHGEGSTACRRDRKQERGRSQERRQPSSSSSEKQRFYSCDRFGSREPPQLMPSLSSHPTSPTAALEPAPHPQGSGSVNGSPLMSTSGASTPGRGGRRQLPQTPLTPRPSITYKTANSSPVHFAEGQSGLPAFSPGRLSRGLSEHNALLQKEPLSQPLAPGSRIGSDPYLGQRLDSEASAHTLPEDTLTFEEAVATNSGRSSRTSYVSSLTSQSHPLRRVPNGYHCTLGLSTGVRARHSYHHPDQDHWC
N-type or omega HVA neuronal calcium channels; calcium currents in N1E-115 neuroblastoma cells, sequence (O08532 25-956 partner limits assumed): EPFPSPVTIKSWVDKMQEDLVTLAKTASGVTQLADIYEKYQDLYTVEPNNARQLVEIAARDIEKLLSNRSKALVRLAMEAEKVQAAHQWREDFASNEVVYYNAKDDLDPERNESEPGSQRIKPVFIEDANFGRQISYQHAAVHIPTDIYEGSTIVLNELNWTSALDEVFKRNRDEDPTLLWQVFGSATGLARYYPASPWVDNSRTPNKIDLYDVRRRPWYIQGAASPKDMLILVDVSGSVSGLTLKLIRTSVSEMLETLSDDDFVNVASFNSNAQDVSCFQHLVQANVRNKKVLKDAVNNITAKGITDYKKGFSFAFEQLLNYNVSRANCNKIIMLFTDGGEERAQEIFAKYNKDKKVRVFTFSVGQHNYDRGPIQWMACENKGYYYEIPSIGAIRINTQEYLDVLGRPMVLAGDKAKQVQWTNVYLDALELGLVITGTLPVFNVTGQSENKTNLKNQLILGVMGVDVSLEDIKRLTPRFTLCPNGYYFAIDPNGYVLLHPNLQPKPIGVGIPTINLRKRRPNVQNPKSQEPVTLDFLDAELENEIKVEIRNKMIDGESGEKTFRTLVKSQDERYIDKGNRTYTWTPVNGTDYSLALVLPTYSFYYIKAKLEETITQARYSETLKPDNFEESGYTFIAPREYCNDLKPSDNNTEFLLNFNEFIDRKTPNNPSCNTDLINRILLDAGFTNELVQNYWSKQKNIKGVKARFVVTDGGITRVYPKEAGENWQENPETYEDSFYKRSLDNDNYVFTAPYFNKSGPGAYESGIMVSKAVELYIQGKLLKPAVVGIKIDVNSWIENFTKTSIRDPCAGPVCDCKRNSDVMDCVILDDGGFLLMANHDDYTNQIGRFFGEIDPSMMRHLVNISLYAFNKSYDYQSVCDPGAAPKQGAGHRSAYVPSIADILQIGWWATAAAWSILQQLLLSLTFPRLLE
N-type or omega HVA neuronal calcium channels; calcium currents in N1E-115 neuroblastoma cells, sequence (O08532 957-1103 partner limits assumed): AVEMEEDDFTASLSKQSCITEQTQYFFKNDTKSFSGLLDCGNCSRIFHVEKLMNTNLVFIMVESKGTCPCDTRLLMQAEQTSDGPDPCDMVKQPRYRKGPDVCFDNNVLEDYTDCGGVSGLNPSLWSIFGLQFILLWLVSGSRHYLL

Regarding `CC[C@H](C)[C@@H]1NC(=O)[C@H](CO)NC(=O)[C@H]([C@@H](C)O)NC(=O)[C@H](C(C)C)NC(=O)CNC(=O)[C@@H]2CSSC[C@@H]3NC(=O)[C@H](CCCNC(=N)N)NC(=O)CNC(=O)[C@H](CSSC[C@H](N)C(=O)N[C@@H](CCCNC(=N)N)C(=O)N[C@@H](CO)C(=O)N[C@@H](CO)C(=O)NCC(=O)N[C@@H](CO)C(=O)N4C[C@H](O)C[C@H]4C(=O)N2)NC(=O)[C@H](CSSC[C@@H](C(=O)N[C@H](C(N)=O)[C@@H](C)O)NC(=O)[C@H](CCCCN)NC(=O)CNC(=O)[C@H](CCCNC(=N)N)NC(=O)[C@H](Cc2ccc(O)cc2)NC3=O)NC1=O` [SNX-157] (H-CRSSGS[Hyp]CGVTSICCGRCYRGKCT-NH2; disulfide 1-15, 8-18, 14-23), the “IC50, inhibition of calcium currents in N1E-115 neuroblastoma cells” value is reported as above 20 μM.
